{
  "source": "patent US20040092528A1",
  "about": "“Agent for modulating excitatory synaptic transmission comprising a compound having alpha7 nicotinic acetylcholine receptor activation property” (priority 2000, published 2004)",
  "key": {"guinea-pig hippocampus": {"system": "guinea-pig hippocampus", "details": "cited from earlier work"}, "rats": {"system": "rats", "details": "rats in vivo; cited from earlier work"}, "rat hippocampus": {"system": "rat hippocampus", "details": "cited from earlier work"}, "[1]": {"system": "CA1 neurones in rat hippocampal slices", "assay": "EPSP recording (amplitude, slope, quantal content) in CA1 neurones in rat hippocampal slices", "format": "cell-based", "details": "for increase in EPSP slope: dose-response series"}, "[2]": {"target": "α7 nicotinic ACh receptor (Rattus norvegicus, UniProt Q05941)", "sequence (Q05941 23-502)": "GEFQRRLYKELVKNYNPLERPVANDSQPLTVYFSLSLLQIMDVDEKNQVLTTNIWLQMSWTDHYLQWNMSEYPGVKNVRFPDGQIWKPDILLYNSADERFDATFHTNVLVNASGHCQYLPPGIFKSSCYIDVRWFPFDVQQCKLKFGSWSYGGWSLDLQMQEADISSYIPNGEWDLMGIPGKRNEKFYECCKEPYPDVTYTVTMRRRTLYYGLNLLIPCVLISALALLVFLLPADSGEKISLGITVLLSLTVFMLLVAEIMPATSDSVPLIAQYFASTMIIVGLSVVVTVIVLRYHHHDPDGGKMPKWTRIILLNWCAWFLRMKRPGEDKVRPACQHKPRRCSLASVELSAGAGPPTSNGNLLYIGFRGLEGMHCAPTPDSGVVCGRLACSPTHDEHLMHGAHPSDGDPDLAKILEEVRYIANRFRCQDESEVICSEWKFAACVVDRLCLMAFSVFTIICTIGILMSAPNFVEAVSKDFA", "assay": "Effect of FK960 on EPSP amplitude in the presence of α7 nicotinic ACh receptor antagonists", "format": "cell-based"}, "CA1 neurones [3]": {"system": "CA1 neurones", "assay": "Membrane potential and input resistance of CA1 neurones", "format": "cell-based, rat", "details": "FK960 94 nM and 100 nM, n=11, average exposure 30 mins"}, "cholinergic receptors": {"system": "cholinergic receptors", "assay": "Displacement of radiolabelled ligands with high affinity to cholinergic receptors", "format": "binding", "details": "a number of assays"}, "CA1 neurones [4]": {"system": "CA1 neurones", "assay": "Excitatory post-synaptic current (EPSC) in CA1 neurones voltage clamped at −70 mV", "format": "cell-based, rat"}, "CA1 neurones [5]": {"system": "CA1 neurones", "assay": "GABAergic inhibitory post-synaptic current (IPSC) in voltage clamped CA1 neurones", "format": "cell-based, rat"}, "[6]": {"details": "one CA1 neurone (FIG. 1), 100 nM FK960"}},
  "note": "Read-outs that look alike come from different tables or passages of the source.",
  "data": [
    {"molecule": "CC(=O)N1CCN(NC(=O)c2ccc(F)cc2)CC1", "note": "[FK960, N-(4-acetyl-1-piperazinyl)-p-fluorobenzamide monohydrate]", "values": [
      {"measurement": "effect on magnitude of long-term potentiation", "setting": "guinea-pig hippocampus; guinea pig hippocampus, 100 nM FK960", "value": "significantly increased the magnitude of long-term potentiation"},
      {"measurement": "effect on magnitude of long-term potentiation", "setting": "guinea-pig hippocampus; guinea-pig hippocampus in vitro", "value": "increase the magnitude of long-term potentiation"},
      {"measurement": "effect on scopolamine-induced cognitive deficits", "setting": "rats", "value": "reverse scopolamine-induced cognitive deficits"},
      {"measurement": "effect on amplitude of the un-potentiated population spike", "setting": "rat hippocampus", "value": "increases the amplitude of the un-potentiated population spike"},
      {"measurement": "dose-response relationship (shape)", "setting": "[1]; 0, 50, 100, 200 nM FK960, EPSP slope", "value": "bell-shaped"},
      {"measurement": "increase in mean EPSP amplitude", "setting": "[1]; 100 nM FK960, 21 min, n=9 neurones", "value": 65, "unit": "%"},
      {"measurement": "mean EPSP amplitude", "setting": "[1]; 100 nM FK960, 21 min, n=9 neurones, 2.3 mV before", "value": 3.8, "unit": "mV"},
      {"measurement": "mean increase in 1/CV^2 (quantal content)", "setting": "[1]; 100 nM FK960, 21 minutes, pooled neurones", "value": 53, "unit": "%"},
      {"measurement": "1/CV^2 (quantal content), mean", "setting": "[1]; 100 nM FK960, 21 minutes, 6.4 before", "value": 9.8},
      {"measurement": "increase in mean EPSP slope", "setting": "[1]; 100 nM FK960, after 21 mins, n=9", "value": 51, "unit": "%"},
      {"measurement": "mean EPSP slope", "setting": "[1]; 100 nM FK960, after 21 mins, n=9, 357.8 mV/s before", "value": 540.5, "unit": "mV/s"},
      {"measurement": "frequency of spontaneous EPSPs", "setting": "[1]; 4 neurones, 20-30 min after exposure to 100 nM FK960, 0.65 before", "value": 0.54, "unit": "spontaneous EPSP/sec"},
      {"measurement": "mean quantum size", "setting": "[1]; after 21 minutes exposure to 100 nM FK960, 7 neurones, 0.39 mV before", "value": 0.42, "unit": "mV"},
      {"measurement": "increase in EPSP amplitude", "setting": "[1]; after 27 mins in FK960, n=7", "value": 64, "unit": "%"},
      {"measurement": "EPSP amplitude", "setting": "[1]; after 27 mins in FK960, n=7, 2.2 mV before", "value": 3.6, "unit": "mV"},
      {"measurement": "increase in EPSP slope", "setting": "[1]; 50 nM FK960", "value": "smaller and not significant"},
      {"measurement": "increase in EPSP slope", "setting": "[1]; 100 nM FK960, n=5, after 21 mins, control aCSF 11%", "value": 55, "unit": "%"},
      {"measurement": "increase in EPSP slope", "setting": "[1]; 200 nM FK960", "value": "smaller and not significant"},
      {"measurement": "increase in mean EPSP amplitude", "setting": "[1]; [6]", "value": 123, "unit": "%"},
      {"measurement": "rise in quantal content", "setting": "[1]; [6]", "value": 109, "unit": "%"},
      {"measurement": "mean EPSP amplitude", "setting": "[1]; one CA1 neurone (FIG. 1), 100 nM FK960, n=287 EPSPs, 2.6 mV in control aCSF", "value": 5.8, "unit": "mV"},
      {"measurement": "increase in slope of the rising phase of the averaged EPSP", "setting": "[1]; one CA1 neurone (FIG. 1), 21 min 40 sec after 100 nM FK960", "value": 127, "unit": "%"},
      {"measurement": "slope of the rising phase of the averaged EPSP", "setting": "[1]; one CA1 neurone (FIG. 1), 21 min 40 sec after 100 nM FK960, 326.7 mV/s before", "value": 742.8, "unit": "mV/s"},
      {"measurement": "quantal content (1/CV^2)", "setting": "[1]; one CA1 neurone (FIG. 1), after 20 mins in 100 nM FK960, 6.4 before", "value": 13.4},
      {"measurement": "mean EPSP amplitude", "setting": "[1]; one CA1 neurone (FIG. 1), after 21 min in 100 nM FK960, 2.6 mV (n=50) before", "value": 5.5, "unit": "mV"},
      {"measurement": "increase in mean EPSP amplitude", "setting": "[2]", "value": 11, "unit": "%"},
      {"measurement": "mean EPSP amplitude", "setting": "[2]", "value": 2.0, "unit": "mV"},
      {"measurement": "mean EPSP amplitude", "setting": "[2]; 21 minutes exposure to 100 nM FK960 in 100 nM MLA, 5 CA1 neurones, unchanged", "value": 2.6, "unit": "mV"},
      {"measurement": "rise in EPSP amplitude", "setting": "[2]; FK960 in 10 nM MLA, 21 minutes, n=3, from 3.1 mV", "value": 10, "unit": "%"},
      {"measurement": "input resistance", "setting": "CA1 neurones [3]; 175.3 MΩ in control aCSF", "value": 164.2, "unit": "MΩ"},
      {"measurement": "resting membrane potential", "setting": "CA1 neurones [3]; −60.3 mV in control aCSF", "value": "−59.4", "unit": "mV"},
      {"measurement": "displacement of radiolabelled ligands with high affinity to cholinergic receptors", "setting": "cholinergic receptors", "value": "failed to displace"},
      {"measurement": "EPSC decay time constant τEPSC", "setting": "CA1 neurones [4]; 4 experiments, 20-22 mins exposure to 100 nM FK960, 22.2 ms before", "value": 28.4, "unit": "ms"},
      {"measurement": "EPSC amplitude", "setting": "CA1 neurones [4]; 4 experiments, 20-22 mins exposure to 100 nM FK960, 98.3 pA before", "value": 158.3, "unit": "pA"},
      {"measurement": "EPSC amplitude", "setting": "CA1 neurones [4]; one neurone (FIG. 5C), FK960, 103 pA before", "value": 175, "unit": "pA"},
      {"measurement": "effect on the IPSC", "setting": "CA1 neurones [5]; 100 nM FK960", "value": "no significant effect"},
      {"measurement": "Mean IPSC amplitude", "setting": "CA1 neurones [5]; 3 experiments, FK960, 48 pA in control aCSF", "value": 46, "unit": "pA"},
      {"measurement": "IPSC peak amplitude", "setting": "CA1 neurones [5]; one CA1 neurone (FIG. 4), 21 minutes in FK960, 39 pA in control aCSF", "value": 38, "unit": "pA"}
    ]},
    {"molecule": "O=C(c1ccc2nccnc2c1)N1CCCCC1", "note": "[FR212436, 1-(quinoxalin-6-ylcarbonyl)piperidine]", "values": [
      {"measurement": "EPSC decay time constant τEPSC", "setting": "CA1 neurones [4]; 200 μM FR212436 for 20 min, n=3, 15.0 ms before", "value": 22.4, "unit": "ms"},
      {"measurement": "EPSC amplitude", "setting": "CA1 neurones [4]; 200 μM FR212436 for 20 min, n=3, 84 pA before", "value": 181.3, "unit": "pA"},
      {"measurement": "EPSC decay time constant τEPSC", "setting": "CA1 neurones [4]; 2 mM FR212436 for 5-10 min, n=3, 21.5 ms before", "value": 46.7, "unit": "ms"},
      {"measurement": "EPSC amplitude", "setting": "CA1 neurones [4]; 2 mM FR212436 for 5-10 min, n=3, 73.7 pA before", "value": 239.7, "unit": "pA"},
      {"measurement": "EPSC amplitude", "setting": "CA1 neurones [4]; one neurone (FIG. 5A), FR212436 200 μM, 42 pA before", "value": 95, "unit": "pA"},
      {"measurement": "EPSC amplitude", "setting": "CA1 neurones [4]; one neurone (FIG. 5B), FR212436 2 mM, 87 pA before", "value": 247, "unit": "pA"}
    ]},
    {"molecule": "α-bungarotoxin [reference compound]", "values": [
      {"measurement": "effect of antagonist on the action of FK960 on the EPSP", "setting": "[2]", "value": "attenuated"},
      {"measurement": "mean EPSP amplitude", "setting": "[2]", "value": 1.6, "unit": "mV"}
    ]}
  ]
}
